This is an account of results in US20070059310A1, “Therapeutic combination compositions and methods of using same” (priority 2005, published 2007).

The series is described as follows: Aggregate number from ratio of molecular weights at pH 7 and pH 13 (GPC fractions). In kind it is physicochemical. How it is done: The aggregate number of a β-glucan sample under a specified set of conditions can be determined by determining the average molecular weight of the polymer under those conditions. The β-glucan is then denatured, that is, subjected to conditions which separate any aggregates into their component single polymer chains. The average molecular weight of the denatured polymer is then determined. The ratio of the molecular weights of the aggregated and denatured forms of the polymer is the aggregate number. A typical β-glucan composition includes molecules having a range of chain lengths, conformations and molecular weights. Thus, the measured aggregate number of a β-glucan composition is the mass average aggregate number across the entire range of β-glucan molecules within the composition. […] For example, a measured aggregate number of about 6 or more is characteristic of a composition in which the β-glucan is substantially in the triple helix aggregate conformation. […]
The molecular weights of fractions A and C were determined at 25° C. at both pH 7 and pH 13, and at 37° C. at pH 7. […] Thus, at a given temperature the ratio of the molecular weights determined at pH 7 and pH 13 is the aggregate number at pH 7 at that temperature. […]

For scleroglucan, the aggregate number entry runs as follows: (pH 7, 25° C.) “about 3”; (pH 7, 37° C.) “about 3”.
